A short description of data set [1]: Thermodynamic stability / interconversion of crystal forms of Org 12962. It is filed as physicochemical. Conditions: solid crystal forms of Org 12962 compared.
The nature of data set [2]: Stability of crystal forms A and B in admixture with excipients (HPLC content after storage). Type of data set: physicochemical. To be noted: for content of Org 12962 remaining after storage, percentage of the initial amount: 14 days. The procedure:
To each aliquot an excipient mentioned in Table II was added, followed by 10 μl of water, after which the suspensions were thoroughly mixed.
Aliquots of Org 12962 (5-10 mg) in crystal form B (100% form B) were weighed into roundbottomed tubes. To each aliquot an excipient mentioned in Table II was added, followed by 100 μl of water. Glass beads (250-300 mg) were added to each tube, after which the samples were thoroughly mixed for 1 minute. The residual water was evaporated in vacuo at room temperature. The tubes were stored in the dark for 14 days at either 20° C. or at 60° C. The samples were dissolved in 20.0 ml of a 70:30 mixture of 25 mM phosphate pH 2.6 buffer and acetonitrile. Dissolution was effected by keeping the tubes in a sonifier for 20 minutes.
Quantitative analysis of the amount of Org 12962 per tube was done by high performance liquid chromatography (hplc) using either of the following validated methods: (1) using a Symmetry Shield Reverse Phase RP 18 column (150×4.6 mm), which was operated at 40° C., using a flow rate of 1.0 ml/min, and as eluent a 69:31 (v/v) mixture of 25 mM phosphate buffer pH 2.6 buffer, also containing 15 mM octanesulphonic acid, and acetonitrile, or (2) using a Lichrospher 60 RP Select B column (125×4.0 mm), which was operated at ambient temperature, using a flow rate of 1.5 ml/min, and as eluent a 55:45 (v/v) mixture of methanol and water, also containing 5 mM octanesulphonic acid. The content of Org 12962 remaining in the samples after storage is given in Table II as the percentage (%) of the initial amount.

[3] abbreviates: admixture with Cornstarch (10 mg per 5.0 mg Org 12962), 20° C./dark.
Where [4] appears, read: admixture with Cornstarch (10 mg per 5.0 mg Org 12962), 60° C./dark.
[5] abbreviates: admixture with HPC (2 mg per 5.0 mg Org 12962), 20° C./dark.
Setting [6] is: admixture with HPMC (1.3 mg per 5.0 mg Org 12962), 20° C./dark.
Where [7] appears, read: admixture with HPMC (1.3 mg per 5.0 mg Org 12962), 60° C./dark.
Setting [8] is: admixture with Lactose (80 mg per 5.0 mg Org 12962), 20° C./dark.
Setting [9] is: admixture with Lactose (80 mg per 5.0 mg Org 12962), 60° C./dark.
Where [10] appears, read: admixture with Mg-stearate (0.5 mg per 5.0 mg Org 12962), 20° C./dark.
Setting [11] is: admixture with Mg-stearate (0.5 mg per 5.0 mg Org 12962), 60° C./dark.
Where [12] appears, read: admixture with PEG 400 (0.3 mg per 5.0 mg Org 12962), 20° C./dark.
Setting [13] is: admixture with PEG 400 (0.3 mg per 5.0 mg Org 12962), 60° C./dark.
[14] abbreviates: admixture with Primojel (4 mg per 5.0 mg Org 12962), 20° C./dark.
The mark [15] stands for this setting: admixture with Primojel (4 mg per 5.0 mg Org 12962), 60° C./dark.
The mark [16] stands for this setting: admixture with Talc (0.3 mg per 5.0 mg Org 12962), 20° C./dark.
[17] abbreviates: admixture with Talc (0.3 mg per 5.0 mg Org 12962), 60° C./dark.
Setting [18] is: admixture with Titanium dioxide (0.2 mg per 5.0 mg Org 12962), 20° C./dark.
The mark [19] stands for this setting: admixture with Titanium dioxide (0.2 mg per 5.0 mg Org 12962), 60° C./dark.

Take `Cl.FC(F)(F)c1ccc(N2CCNCC2)nc1Cl` [form C, 1-[6-Chloro-5-(trifluoromethyl)-2-pyridinyl]piperazine.hydrochloride]: the “thermodynamic stability of the crystal form” value in data set [1] is “spontaneously converts to form B, even at −20 °C”.
For the compound `Cl.FC(F)(F)c1ccc(N2CCNCC2)nc1Cl` [I, 1-[6-Chloro-5-(trifluoromethyl)-2-pyridinyl]piperazine.hydrochloride], the “content of Org 12962 remaining after storage, percentage of the initial amount” value is 100.0% in data set [2] (setting [3]); 82.6% in data set [2] (setting [4]); 98.0% in data set [2] (setting [5]); 95.0% in data set [2] (setting [6]); 91.8% in data set [2] (setting [7]); 94.5% in data set [2] (setting [8]). In addition, the “content of Org 12962 remaining after storage, percentage of the initial amount” value in data set [2] (setting [9]) amounted to 91.2%; in data set [2] (setting [10]), 97.9%; in data set [2] (setting [11]) it was 93.8%; in data set [2] (setting [12]) it was 96.5%; in data set [2] (setting [13]) it was 92.5%; in data set [2] (setting [14]) it was 95.0%. The “content of Org 12962 remaining after storage, percentage of the initial amount” value in data set [2] (setting [15]) came to 94.6%; in data set [2] (setting [16]) it was 99.2%; in data set [2] (setting [17]), 94.5%; in data set [2] (setting [18]) it was 96.0%; in data set [2] (setting [19]) it was 97.5%.
In the case of `Cl.FC(F)(F)c1ccc(N2CCNCC2)nc1Cl` [II, 1-[6-Chloro-5-(trifluoromethyl)-2-pyridinyl]piperazine.hydrochloride], the “content of Org 12962 remaining after storage, percentage of the initial amount” value in data set [2] (setting [3]) amounted to 100.1%; in data set [2] (setting [4]), 97.9%; in data set [2] (setting [5]), 100.0%; in data set [2] (admixture with HPC (2 mg per 5.0 mg Org 12962), 60° C./dark), 96.5%; in data set [2] (setting [6]), 100.0%; in data set [2] (setting [7]) it was 97.8%. Also, the “content of Org 12962 remaining after storage, percentage of the initial amount” value is 99.6% in data set [2] (setting [8]); 97.4% in data set [2] (setting [9]); 99.9% in data set [2] (setting [10]); 97.9% in data set [2] (setting [11]); 99.8% in data set [2] (setting [12]); 96.3% in data set [2] (setting [13]). In addition, the “content of Org 12962 remaining after storage, percentage of the initial amount” value stood at 100.0% in data set [2] (setting [14]); 96.0% in data set [2] (setting [15]); 99.9% in data set [2] (setting [16]); 100.1% in data set [2] (setting [17]); 99.8% in data set [2] (setting [18]); 92.9% in data set [2] (setting [19]). In addition, the “stability in admixture with pharmaceutical excipients, compared with crystal form A” value in data set [2] (stored in the dark, especially notable at 60° C. with lactose and cornstarch) is “more stable”. For the same compound, the “thermodynamic stability of the crystal form” value in data set [1] (listed as crystal form B) was “thermodynamically most stable form”.

Source of the values: patent US20040038985A1, “Crystal forms of 1- [6-chloro-5-(trifluoromethly) -2-pyridinyl] piperazine hydrochloride” (priority 2000, published 2004).
